The target of series [1] is T1, Co(II)-substituted E. coli PDF (Escherichia coli, UniProt P0A6K3).
T1 construct: made in house
Kind of series: PDF assay coupled to formate dehydrogenase. Type of series: biochemical.

The next series concerns the target MMP-3 (Homo sapiens, UniProt P08254). Kind of series: Inhibition of human matrix metalloproteases. Type of series: biochemical. As to conditions: read-out: percentage of MMP-3 activity remaining; for remaining activity at 1 µM: inhibitor 1.0 μM; for remaining activity at 10 µM: inhibitor 10 μM. The method, then:
(§1) Inhibition of Metalloproteases (MMP) Several of the inhibitors were tested for inhibition of human matrix metalloproteases, which are often used as indicators of inhibitor selectivity (no inhibition of MMP is desired). Each inhibitor was tested at two different concentrations (1.0 and 10 μM). The values reported are the percentage of MMP activity remaining in the presence of added inhibitor.

Another series addresses T2, MMP2 (Homo sapiens, UniProt P08253).
T2 sequence (P08253 110-660): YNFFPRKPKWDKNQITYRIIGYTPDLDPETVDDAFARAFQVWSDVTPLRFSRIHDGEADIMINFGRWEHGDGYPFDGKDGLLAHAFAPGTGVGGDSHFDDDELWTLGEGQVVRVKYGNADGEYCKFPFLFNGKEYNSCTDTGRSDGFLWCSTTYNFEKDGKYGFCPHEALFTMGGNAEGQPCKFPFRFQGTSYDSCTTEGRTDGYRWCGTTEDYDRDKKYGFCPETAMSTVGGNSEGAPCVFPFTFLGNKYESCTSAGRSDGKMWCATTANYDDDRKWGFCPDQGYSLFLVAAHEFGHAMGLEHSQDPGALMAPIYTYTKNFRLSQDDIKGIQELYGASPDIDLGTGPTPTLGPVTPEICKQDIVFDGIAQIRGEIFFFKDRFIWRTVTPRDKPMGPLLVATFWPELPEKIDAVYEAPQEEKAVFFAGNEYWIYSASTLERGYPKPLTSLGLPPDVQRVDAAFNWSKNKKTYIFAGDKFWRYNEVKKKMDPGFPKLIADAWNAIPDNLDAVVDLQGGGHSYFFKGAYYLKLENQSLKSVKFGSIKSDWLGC
Kind of series: Inhibition of human matrix metalloproteases. Conditions: read-out: percentage of MMP2 activity remaining; for remaining activity at 1 µM: inhibitor 1.0 μM; for remaining activity at 10 µM: inhibitor 10 μM. Type of series: biochemical. The procedure:
as §1

The target of a further series is MMP-9 (Homo sapiens, UniProt P14780). Briefly: Inhibition of human matrix metalloproteases. Type of series: biochemical. Conditions: read-out: percentage of MMP-9 activity remaining; for remaining activity at 1 µM: inhibitor 1.0 μM; for remaining activity at 10 µM: inhibitor 10 μM. The method, then:
as §1

The next series addresses T3, MMP-1 (Homo sapiens, UniProt P03956).
T3 sequence (P03956 100-469): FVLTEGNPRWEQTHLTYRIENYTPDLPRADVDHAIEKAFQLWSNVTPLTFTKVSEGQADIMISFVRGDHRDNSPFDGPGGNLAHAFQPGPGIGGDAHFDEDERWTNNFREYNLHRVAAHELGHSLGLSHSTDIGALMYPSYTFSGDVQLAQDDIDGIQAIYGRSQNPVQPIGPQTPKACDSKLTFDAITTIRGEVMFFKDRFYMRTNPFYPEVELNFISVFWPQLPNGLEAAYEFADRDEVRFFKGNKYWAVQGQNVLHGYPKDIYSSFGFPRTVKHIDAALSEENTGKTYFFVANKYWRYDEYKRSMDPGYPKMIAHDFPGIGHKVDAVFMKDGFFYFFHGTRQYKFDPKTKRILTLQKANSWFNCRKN
Kind of series: Inhibition of human matrix metalloproteases. Type of series: biochemical. As to conditions: read-out: percentage of MMP-1 activity remaining; for remaining activity at 1 µM: inhibitor 1.0 μM; for remaining activity at 10 µM: inhibitor 10 μM. The procedure:
as §1

In another series the test system is B. subtilis. Briefly: Antibacterial activity (cell growth, MIC). Type of series: cell-based. Conditions: Bacillus subtilis, read-out: MIC. The procedure: (§2) FIG. 5 Inhibition of B. subtilis (A) and E. coli (B) cell growth by inhibitor 2. An overnight culture was diluted 1000-fold into 2 mL of fresh LB medium containing the specified concentrations of inhibitor 2 and incubated at 37° C. Cell densities were measured at the specified times on a UV-vis spectrophotometer.
(§3) The in vitro antibacterial activity of the cyclic inhibitor was tested against E. coli and Bacillus subtilis, the representative Gram-negative and Gram-positive bacteria, respectively.
(§4) Antimicrobial Susceptibility Testing. For Escherichia coli and Bacillus subtilis, cell growth was monitored on the Lambda-20 UV/Vis spectrophotometer at 600 nm. A single bacterial colony from a plate culture was grown overnight in LB media and was diluted 1000-fold into 2 mL of fresh growth medium containing 0-64 μg/mL of test agent in a 5-mL glass test tube shaken at a speed of 250 rpm. Cell growth (at 37° C.) was monitored for 0-600 min.
(§5) Antibacterial Activity of PDF Inhibitors Inhibitors 2-7E were tested against two or more bacterial strains for antibacterial activities.

Another series relates to E. coli. Briefly: Antibacterial activity (cell growth, MIC). Type of series: cell-based. As to conditions: Escherichia coli. The method, then:
as §2, §3, §4, §5

Series [2] relates to S. pneumoniae (ATCC 6303). Briefly: Antibacterial activity (MIC). Type of series: cell-based. As to conditions: Streptococcus pneumoniae, ATCC6303. The method, then:
as §5

Series [3] relates to H. influenzae (ATCC 31517). Kind of series: Antibacterial activity (MIC). Type of series: cell-based. Conditions: Haemophilus influenzae, ATCC31517. The procedure: as §5
The test system of the next series is S. aureus (ATCC 29213). Briefly: Antibacterial activity (MIC). Type of series: cell-based. Conditions: Staphylococcus aureus, ATCC29213. The procedure:
as §5

The test system of series [4] is M. catarrhalis (ATCC 37054). Briefly: Antibacterial activity (MIC). Type of series: cell-based. Conditions: Moraxella catarrhalis, ATCC37054. The method, then:
as §5

For series [5], the system named is S. pneumoniae (ATCC 6301). Briefly: Antibacterial activity (MIC). Type of series: cell-based. As to conditions: Streptococcus pneumoniae, ATCC6301. The procedure: as §5
A further series concerns E. faecalis (ATCC 29212). Briefly: Antibacterial activity (MIC). Type of series: cell-based. Conditions: Enterococcus faecalis, ATCC29212. The procedure:
as §5

In series [6] the test system is S. pneumoniae (ATCC 49619). Kind of series: Antibacterial activity (MIC). Type of series: cell-based. Conditions: Streptococcus pneumoniae, ATCC49619. The procedure:
as §5

Series [7] is described as follows: Stability of inhibitors in rat plasma. Type of series: in vitro ADME. As to conditions: 37° C., LC-MS. The method, then:
FIG. 7 Comparison of the in vitro stability of PDF inhibitors 6 (cyclic) and 9 (acyclic) in rat plasma.
Stability of Inhibitors Inhibitors 6E and comparative compound 9 were chosen to test for the effect of cyclization on inhibitor stability. They both have an L-lysine as the P2′ residue and are expected to be sensitive to proteolytic degradation by trypsin-like enzymes. Both inhibitors were incubated in rat plasma at 37° C. and aliquots were withdrawn at various times and analyzed by LC-MS. […] Our attempts to identify the degradation products by mass spectrometry failed.

Series [8] concerns human matrix metalloproteases. Kind of series: Inhibition of human matrix metalloproteases, overall statement. Type of series: biochemical. Conditions: MMP-1, MMP2, MMP-3, MMP-9; 1.0 and 10 μM. The method, then:
Inhibition of Metalloproteases (MMP) Several of the inhibitors were tested for inhibition of human matrix metalloproteases, which are often used as indicators of inhibitor selectivity (no inhibition of MMP is desired). Each inhibitor was tested at two different concentrations (1.0 and 10 μM). The values reported are the percentage of MMP activity remaining in the presence of added inhibitor. […] The acyclic inhibitors are flexible and can adopt different conformations to fit the active sites of both PDF and MMP's.

The mark [9] stands for this setting: formate dehydrogenase-coupled assay, 4 nM E. coli PDF, pH 7.0, read-out: K1 (apparent inhibition constant).

In brackets after ≈: the same amount, converted by molar mass. Read-outs that look alike come from different tables or passages of the source.

T1 sequence (P0A6K3 whole entry): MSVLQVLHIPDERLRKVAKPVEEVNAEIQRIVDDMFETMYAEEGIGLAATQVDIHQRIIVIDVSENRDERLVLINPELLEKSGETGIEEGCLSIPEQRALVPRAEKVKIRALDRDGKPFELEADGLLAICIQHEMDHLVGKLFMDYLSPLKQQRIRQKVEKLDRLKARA
MMP-9, sequence (P14780 94-707): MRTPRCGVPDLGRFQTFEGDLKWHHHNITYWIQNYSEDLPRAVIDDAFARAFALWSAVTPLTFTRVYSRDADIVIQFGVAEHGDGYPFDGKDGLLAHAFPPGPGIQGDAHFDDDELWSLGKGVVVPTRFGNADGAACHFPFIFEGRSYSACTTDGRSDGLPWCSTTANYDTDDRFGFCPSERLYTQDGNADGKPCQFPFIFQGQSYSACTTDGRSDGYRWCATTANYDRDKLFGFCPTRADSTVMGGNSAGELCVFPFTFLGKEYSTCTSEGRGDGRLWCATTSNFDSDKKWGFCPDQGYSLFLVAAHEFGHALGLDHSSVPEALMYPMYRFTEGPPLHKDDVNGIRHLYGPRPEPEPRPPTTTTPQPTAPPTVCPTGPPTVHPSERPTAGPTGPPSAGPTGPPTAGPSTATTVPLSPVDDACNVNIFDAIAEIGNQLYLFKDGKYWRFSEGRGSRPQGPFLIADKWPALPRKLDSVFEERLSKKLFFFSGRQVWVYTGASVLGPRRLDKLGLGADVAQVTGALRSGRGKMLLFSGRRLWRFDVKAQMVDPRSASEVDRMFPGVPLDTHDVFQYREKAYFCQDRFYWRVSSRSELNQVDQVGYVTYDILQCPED
MMP-3, sequence (P08254 100-477): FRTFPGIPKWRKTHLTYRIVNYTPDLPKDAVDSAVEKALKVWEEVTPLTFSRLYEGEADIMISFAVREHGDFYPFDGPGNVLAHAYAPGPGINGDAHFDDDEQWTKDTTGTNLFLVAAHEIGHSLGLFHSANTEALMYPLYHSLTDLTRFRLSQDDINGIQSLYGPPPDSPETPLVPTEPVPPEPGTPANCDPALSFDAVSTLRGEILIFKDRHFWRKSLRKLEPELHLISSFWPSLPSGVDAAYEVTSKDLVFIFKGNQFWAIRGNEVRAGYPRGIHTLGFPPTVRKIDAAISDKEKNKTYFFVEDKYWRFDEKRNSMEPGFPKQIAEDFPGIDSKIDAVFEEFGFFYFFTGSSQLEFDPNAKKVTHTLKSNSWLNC

Take `CCCC[C@H](CN(O)C=O)C(=O)N[C@H](C(=O)N(C)C)C(C)(C)C` [BB-3497, reference compound]: in [1] (setting [9]), the Ki is approximately 0.007 µM.
On to `CC(C)(C)[C@@H]1NC(=O)[C@@H](CN(O)C=O)CCCCCCCCCCCCCCNC1=O` [Compound 5E], for which the remaining activity at 1 µM at MMP-3 worked out at 97%; at MMP2, 100%; on MMP-9 it was 96%; on MMP-1 it was 93%. For the same compound, the remaining activity at 10 µM stood at 96% on MMP-3, 100% at MMP2, 94% on MMP-9 and 92% on MMP-1. For the same compound, the MIC in the series on B. subtilis is approximately 16 µg/mL (≈ 36.4 µM); with E. coli, more than 24 µg/mL; in series [2], 4 µg/mL (≈ 9.1 µM); in series [3], more than 32 µg/mL; against S. aureus (ATCC 29213) it was more than 32 µg/mL; in series [4], less than 0.031 µg/mL. In addition, the MIC is 8 µg/mL (≈ 18.2 µM) in [5], more than 32 µg/mL against E. faecalis (ATCC 29212) and 8 µg/mL (≈ 18.2 µM) in series [6]. The Ki in series [1] worked out at 0.025 ± 0.006 µM.
For `CC(C)(C)[C@@H]1NC(=O)[C@@H](CN(O)C=O)CCCCCCCCCCCNC1=O` [Compound 4E], the MIC is approximately 0.2 µg/mL (≈ 0.503 µM) in the series with B. subtilis and more than 24 µg/mL in the series on E. coli. The same compound displayed a Ki in series [1] of 0.00022 µM.
For the compound `CCCCCCNC(=O)[C@H](CCCCN)NC(=O)[C@H](CCCCC)CN(O)C=O` [Compound 9C, reference compound], the remaining activity at 1 µM at MMP-3 came to 19%; at MMP2 it was 27%; at MMP-9 it was 39%; at MMP-1, 50%. In addition, the remaining activity at 10 µM on MMP-3 was 1%; on MMP2, 2%; at MMP-9, 6%; at MMP-1 it was 0%. Moreover, the “degradation (loss) in rat plasma after 5 h” value in series [7] is recorded as “approximately 25%”. Further, the “inhibition of the MMPs (in words)” value in series [8] was “substantial inhibition of all of the MMP's”.
With `CC(=O)NCCCC[C@@H]1NC(=O)[C@@H](CN(O)C=O)CCCCCCCCCNC1=O` [Compound 8E], the remaining activity at 1 µM on MMP-3 worked out at 100%; at MMP2, 83%; at MMP-9, 92%; at MMP-1 it was 97%. In addition, the remaining activity at 10 µM came out at 92% on MMP-3, 80% at MMP2, 92% at MMP-9 and 87% at MMP-1. The Ki in [1] turned out to be 0.012 ± 0.004 µM.
With `NCCCC[C@@H]1NC(=O)[C@@H](CN(O)C=O)CCCCCCCCCCCCCCNC1=O` [Compound 7E], the remaining activity at 1 µM at MMP-3 is 100%; at MMP2, 94%; at MMP-9, 96%; at MMP-1 it was 99%. Besides, the remaining activity at 10 µM at MMP-3 is 94%; on MMP2, 85%; on MMP-9, 95%; at MMP-1, 93%. For the same compound, the MIC was more than 32 µg/mL with B. subtilis; more than 32 µg/mL with E. coli; more than 32 µg/mL in [2]; 32 µg/mL (≈ 70.4 µM) in series [3]; 32 µg/mL (≈ 70.4 µM) with S. aureus (ATCC 29213); 1 µg/mL (≈ 2.2 µM) in series [4]. Moreover, the MIC in series [5] was more than 32 µg/mL; in the series with E. faecalis (ATCC 29212), 32 µg/mL (≈ 70.4 µM); in series [6], more than 32 µg/mL. Further, the Ki in series [1] is 0.036 ± 0.009 µM.
Regarding `CC(C)(C)[C@@H]1NC(=O)[C@@H](CN(O)C=O)CCCCCCCNC1=O` [Compound 1E], the remaining activity at 1 µM amounted to 97% on MMP-3, 90% on MMP2, 92% at MMP-9 and 100% at MMP-1. In addition, the remaining activity at 10 µM on MMP-3 came out at 80%; at MMP2, 85%; on MMP-9, 89%; on MMP-1, 99%. The Ki in series [1] (setting [9]) amounted to 0.014 ± 0.003 µM.
Take `CCCC[C@H](CN(O)C=O)C(=O)N[C@@H](CCCCN)C(=O)Nc1ccccc1` [Compound 10C, reference compound]: the remaining activity at 1 µM at MMP-3 came to 32%; at MMP2 it was 66%; at MMP-9 it was 46%; at MMP-1, 50%. Also, the remaining activity at 10 µM on MMP-3 was 27%; on MMP2, 45%; at MMP-9, 11%; at MMP-1, 3%. In addition, in series [1], the Ki worked out at 0.018 ± 0.001 µM. The “inhibition of the MMPs (in words)” value in series [8] is reported as “substantial inhibition of all of the MMP's”.
Turning to `NCCCC[C@@H]1NC(=O)[C@@H](CN(O)C=O)CCCCCCCCCNC1=O` [Compound 6E], the results for the MIC in the series on B. subtilis and in the series on E. coli were approximately 8 µg/mL (≈ 20.8 µM) and 4 to 8 µg/mL (≈ 10.4 to 20.8 µM), respectively. In [1], this compound gave a Ki of 0.003 ± 0.0013 µM. For the same compound, the “degradation (loss) in rat plasma after 5 h” value in [7] is “no detectable degradation”.
Turning to `CC(C)(C)[C@@H]1NC(=O)[C@@H](CN(O)C=O)CCCCCCCCCCNC1=O` [Compound 3E], the Ki in series [1] (setting [9]) came to 0.0004 µM.

The remaining activity is what remains of the control signal, in per cent.

The values are drawn from patent US7538085B2, “Peptide deformylase inhibitors as novel antibiotics” (The Ohio State University Research Foundation, priority 2003, dated 2009).
